Assay results taken from patent US20260297070A1, “CYCLIC [COMPOUND LEFT OUT] WRN INHIBITORS” (Nimbus Wadjet, Inc., priority 2023, published 2026).

Biological target: T1, human Werner helicase (WRN-BV08, Uniprot Q14191, amino acids 517-1235 with L1074F point mutation) (Homo sapiens, UniProt Q14191, L1074F)
T1 construct: Uniprot Q14191, amino acids 517-1235 with L1074F point mutation; TEV-cleavable 8×His (C, cleaved yes); made in house; host or cells: Sf9 insect cells (baculovirus)
Test: WRN (BV08) ADP-Glo Assay
Type: biochemical
Settings: 0.15 nM WRN, 5 μM ATP, 0.1 nM DNA duplex, 15 min preincubation, 60 min at 25° C., pH 7.5, 1% DMSO; read-out: ADP-Glo_hWRN_IC50
Procedure, shortened: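 Percent inhibition was normalised to DMSO (max) and 20 μM NSC-617145 (min) controls from ADP-Glo luminescence, and IC50 values came from a four-parameter fit. The reaction ran 60 min at 25 °C with 0.15 nM WRN, 5 μM ATP and 0.1 nM duplex DNA.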

T1 sequence (Q14191 with tags, fused parts or gaps L1074F limits assumed): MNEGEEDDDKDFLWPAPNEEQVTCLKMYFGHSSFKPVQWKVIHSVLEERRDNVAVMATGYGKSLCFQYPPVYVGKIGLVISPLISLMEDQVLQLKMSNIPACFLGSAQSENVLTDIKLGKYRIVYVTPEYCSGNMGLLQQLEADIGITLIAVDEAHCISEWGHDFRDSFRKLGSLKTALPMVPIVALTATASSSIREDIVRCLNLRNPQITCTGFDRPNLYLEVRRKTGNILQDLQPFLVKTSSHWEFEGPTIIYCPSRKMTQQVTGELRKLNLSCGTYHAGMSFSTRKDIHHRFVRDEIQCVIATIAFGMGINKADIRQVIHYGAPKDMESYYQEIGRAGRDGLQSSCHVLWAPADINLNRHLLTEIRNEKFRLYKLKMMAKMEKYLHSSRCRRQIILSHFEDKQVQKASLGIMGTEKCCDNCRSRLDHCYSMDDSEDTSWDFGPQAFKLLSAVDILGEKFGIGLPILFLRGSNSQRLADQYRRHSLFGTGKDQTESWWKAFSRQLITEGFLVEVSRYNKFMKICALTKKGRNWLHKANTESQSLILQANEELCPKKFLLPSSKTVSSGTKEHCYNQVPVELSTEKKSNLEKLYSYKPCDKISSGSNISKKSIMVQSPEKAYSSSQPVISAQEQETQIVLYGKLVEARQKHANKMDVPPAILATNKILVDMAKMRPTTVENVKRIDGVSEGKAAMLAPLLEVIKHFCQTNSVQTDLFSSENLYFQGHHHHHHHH

Compound	IC50 [µM]
O=C(Cn1ncc2ccc(C(F)(F)F)cc21)N(Cc1ccncc1)C1C=CS(=O)(=O)C1 (stereo not shown) [I-455, N-(1,1-dioxo-2,3-dihydro-1lambda6-thiophen-3-yl)-N-[(pyridin-4-yl)methyl]-2-[6-(trifluoromethyl)-1H-indazol-1-yl]acetamide]	> 50
O=C(Cc1ccc(-n2cccc2)cc1)N(Cc1ccc[nH]c1=O)C1C=CS(=O)(=O)C1 (stereo not shown) [I-369, N-(1,1-dioxo-2,3-dihydro-1lambda6-thiophen-3-yl)-N-[(2-oxo-1,2-dihydropyridin-3-yl)methyl]-2-[4-(1H-pyrrol-1-yl)phenyl]acetamide]	10 to 50
O=C(CN1CCC(C(F)(F)F)CC1)N(Cc1ccncc1)C1C=CS(=O)(=O)C1 (stereo not shown) [I-572, N-(1,1-dioxo-2,3-dihydro-1lambda6-thiophen-3-yl)-N-[(pyridin-4-yl)methyl]-2-[4-(trifluoromethyl)piperidin-1-yl]acetamide]	> 50
CN(C)C(=O)CC(C(=O)N(Cc1ccncc1)C1C=CS(=O)(=O)C1)c1ccc(-c2ccc(F)cc2)cc1 (stereo not shown) [I-475, N-(1,1-dioxo-2,3-dihydro-1lambda6-thiophen-3-yl)-2-{4′-fluoro-[1,1′-biphenyl]-4-yl}-N′,N′-dimethyl-N-[(pyridin-4-yl)methyl]butanediamide]	> 50
CC(C)(O)c1cc(CN(C(=O)C(OCCC(F)(F)F)c2ccc(-c3ccc(F)c(F)c3)cc2F)[C@@H]2C=CS(=O)(=O)C2)ccn1 (single isomer, unassigned) [I-790]	0.5 to 5
O=C(C1CCc2cc(Cl)ccc2O1)N(Cc1ccncc1)C1C=CS(=O)(=O)C1 (stereo not shown) [I-653, 6-chloro-N-(1,1-dioxo-2,3-dihydro-1lambda6-thiophen-3-yl)-N-[(pyridin-4-yl)methyl]-3,4-dihydro-2H-1-benzopyran-2-carboxamide]	> 50
COc1cc(CN(C(=O)C(OCC2CCN(S(C)(=O)=O)C2)c2ccc(-c3ccc(F)c(F)c3)cc2F)[C@@H]2C=CS(=O)(=O)C2)ccn1 (stereo partly drawn) [I-808, N-[(3R)-1,1-dioxo-2,3-dihydro-1lambda6-thiophen-3-yl]-2-[(1-methanesulfonylpyrrolidin-3-yl)methoxy]-N-[(2-methoxypyridin-4-yl)methyl]-2-{3,3′,4′-trifluoro-[1,1′-biphenyl]-4-yl}acetamide]	0.5 to 5
CCc1ccc(CC(=O)N(Cc2ccncc2)C2C=CS(=O)(=O)C2)cc1 (stereo not shown) [I-308, N-(1,1-dioxo-2,3-dihydro-1lambda6-thiophen-3-yl)-2-(4-ethylphenyl)-N-[(pyridin-4-yl)methyl]acetamide]	10 to 50
CC(C)(O)c1cc(CN(C(=O)Cc2ccc(-n3cccc3)cc2)C2C=CS(=O)(=O)C2)ccn1 (stereo not shown) [I-152, N-(1,1-dioxo-2,3-dihydro-1lambda6-thiophen-3-yl)-N-{[2-(2-hydroxypropan-2-yl)pyridin-4-yl]methyl}-2-[4-(1H-pyrrol-1-yl)phenyl]acetamide]	0.5 to 5
COc1cc(CN(C(=O)Cc2ccc(OC3CC3)cc2)C2C=CS(=O)(=O)C2)ccn1 (stereo not shown) [I-588, 2-(4-cyclopropoxyphenyl)-N-(1,1-dioxo-2,3-dihydro-1lambda6-thiophen-3-yl)-N-[(2-methoxypyridin-4-yl)methyl]acetamide]	10 to 50
COc1cc(CN(C(=O)Cc2ccc(-c3cccc(F)c3)cc2F)C2C=CS(=O)(=O)C2)ccn1 (stereo not shown) [I-91, 2-{3,3′-difluoro-[1,1′-biphenyl]-4-yl}-N-(1,1-dioxo-2,3-dihydro-1lambda6-thiophen-3-yl)-N-[(2-methoxypyridin-4-yl)methyl]acetamide]	0.5 to 5
CS(=O)(=O)c1ccccc1CN(C(=O)Cc1ccc(-n2cccc2)cc1)C1C=CS(=O)(=O)C1 (stereo not shown) [I-322, N-(1,1-dioxo-2,3-dihydro-1lambda6-thiophen-3-yl)-N-[(2-methanesulfonylphenyl)methyl]-2-[4-(1H-pyrrol-1-yl)phenyl]acetamide]	10 to 50
COC(C(=O)N(Cc1nc(C2CC2)cs1)C1C=CS(=O)(=O)C1)c1ccc(-c2ccc(F)c(F)c2)cc1F (stereo not shown) [I-47, N-[(4-cyclopropyl-1,3-thiazol-2-yl)methyl]-N-(1,1-dioxo-2,3-dihydro-1lambda6-thiophen-3-yl)-2-methoxy-2-{3,3′,4′-trifluoro-[1,1′-biphenyl]-4-yl}acetamide]	< 0.5
CC(C)(O)c1cc(CN(C(=O)Cn2cc(-c3ccc(C(F)F)cc3)cn2)C2C=CS(=O)(=O)C2)ccn1 (single isomer, unassigned) [I-639]	< 0.5
Cc1sc(CN(C(=O)Cc2ccc(-c3ccc(F)c(F)c3)cc2F)C2C=CS(=O)(=O)C2)nc1C1CC1 (stereo not shown) [I-754, N-[(4-cyclopropyl-5-methyl-1,3-thiazol-2-yl)methyl]-N-(1,1-dioxo-2,3-dihydro-1lambda6-thiophen-3-yl)-2-{3,3′,4′-trifluoro-[1,1′-biphenyl]-4-yl}acetamide]	0.5 to 5

Results, then the compound that gave them:

IC50 [µM]	Compound
0.5 to 5	O=C(Cc1ccc(-n2cccc2)cc1)N(Cc1nc2cnccc2s1)C1C=CS(=O)(=O)C1 (stereo not shown) [I-165, N-(1,1-dioxo-2,3-dihydro-1lambda6-thiophen-3-yl)-2-[4-(1H-pyrrol-1-yl)phenyl]-N-({[1,3]thiazolo[4,5-c]pyridin-2-yl}methyl)acetamide]
10 to 50	O=C(Cc1ccc(-n2cccc2)cc1)N(Cc1ccc(O)cc1)C1C=CS(=O)(=O)C1 (stereo not shown) [I-303, N-(1,1-dioxo-2,3-dihydro-1lambda6-thiophen-3-yl)-N-[(4-hydroxyphenyl)methyl]-2-[4-(1H-pyrrol-1-yl)phenyl]acetamide]
> 50	O=C(Cc1ccc(-n2cccc2)cc1)N(CC12CC(C1)C2)C1C=CS(=O)(=O)C1 (stereo not shown) [I-540, N-({bicyclo[1.1.1]pentan-1-yl}methyl)-N-(1,1-dioxo-2,3-dihydro-1lambda6-thiophen-3-yl)-2-[4-(1H-pyrrol-1-yl)phenyl]acetamide]
> 50	O=C(Cn1cnc(-c2ccccc2)n1)N(Cc1ccncc1)C1C=CS(=O)(=O)C1 (stereo not shown) [I-420, N-(1,1-dioxo-2,3-dihydro-1lambda6-thiophen-3-yl)-2-(3-phenyl-1H-1,2,4-triazol-1-yl)-N-[(pyridin-4-yl)methyl]acetamide]
> 50	COc1cc(CN(C(=O)Cc2ccc(-n3ccccc3=O)cc2F)C2C=CS(=O)(=O)C2)ccn1 (stereo not shown) [I-381, N-(1,1-dioxo-2,3-dihydro-1lambda6-thiophen-3-yl)-2-[2-fluoro-4-(2-oxo-1,2-dihydropyridin-1-yl)phenyl]-N-[(2-methoxypyridin-4-yl)methyl]acetamide]
0.5 to 5	CC(C(=O)N(Cc1ccnc(C(C)(C)O)c1)[C@@H]1C=CS(=O)(=O)C1)n1cc(-c2ccc(F)cc2)cn1 (stereo partly drawn) [I-106, N-[(3R)-1,1-dioxo-2,3-dihydro-1lambda6-thiophen-3-yl]-2-[4-(4-fluorophenyl)-1H-pyrazol-1-yl]-N-{[2-(2-hydroxypropan-2-yl)pyridin-4-yl]methyl}propanamide]
5 to 10	COc1cc(CN(C(=O)Cc2ccc(-c3ccc(F)cn3)c(O)c2)C2C=CS(=O)(=O)C2)ccn1 (stereo not shown) [I-668, N-(1,1-dioxo-2,3-dihydro-1lambda6-thiophen-3-yl)-2-[4-(5-fluoropyridin-2-yl)-3-hydroxyphenyl]-N-[(2-methoxypyridin-4-yl)methyl]acetamide]
> 50	O=C(Cc1ccc(-n2cccc2)cc1)N(C1C=CS(=O)(=O)C1)C(CO)c1ccccc1 (stereo not shown) [I-525, N-(1,1-dioxo-2,3-dihydro-1lambda6-thiophen-3-yl)-N-(2-hydroxy-1-phenylethyl)-2-[4-(1H-pyrrol-1-yl)phenyl]acetamide]
< 0.5	CC(C)(O)c1csc(CN(C(=O)Cc2ccc(S(F)(F)(F)(F)F)cc2)C2C=CS(=O)(=O)C2)n1 (single isomer, unassigned) [I-709]
10 to 50	Cc1nc(CN(C(=O)Cc2ccc(-n3cccc3)cc2)C2C=CS(=O)(=O)C2)cs1 (stereo not shown) [I-335, N-(1,1-dioxo-2,3-dihydro-1lambda6-thiophen-3-yl)-N-[(2-methyl-1,3-thiazol-4-yl)methyl]-2-[4-(1H-pyrrol-1-yl)phenyl]acetamide]
> 50	O=C(Cc1ccc(-n2cccc2)cc1)N(Cc1ccnc2[nH]cnc12)C1C=CS(=O)(=O)C1 (stereo not shown) [I-472, N-(1,1-dioxo-2,3-dihydro-1lambda6-thiophen-3-yl)-N-({3H-imidazo[4,5-b]pyridin-7-yl}methyl)-2-[4-(1H-pyrrol-1-yl)phenyl]acetamide]
> 50	O=C(Cc1ccc2cc[nH]c2c1)N(Cc1ccncc1)C1C=CS(=O)(=O)C1 (stereo not shown) [I-506, N-(1,1-dioxo-2,3-dihydro-1lambda6-thiophen-3-yl)-2-(1H-indol-6-yl)-N-[(pyridin-4-yl)methyl]acetamide]
< 0.5	COc1cc(CN(C(=O)Cc2ccc(-c3ccc(F)c(F)c3)cc2F)C2C=CS(=O)(=O)C2)ccn1 (stereo not shown) [I-64, N-(1,1-dioxo-2,3-dihydro-1lambda6-thiophen-3-yl)-N-[(2-methoxypyridin-4-yl)methyl]-2-{3,3′,4′-trifluoro-[1,1′-biphenyl]-4-yl}acetamide]
< 0.5	CC(C)(O)c1cc(CN(C(=O)Cc2ccc(-c3ccc(F)cc3)cc2F)C2C=CS(=O)(=O)C2)ccn1 (stereo not shown) [I-52, 2-{3,4′-difluoro-[1,1′-biphenyl]-4-yl}-N-(1,1-dioxo-2,3-dihydro-1lambda6-thiophen-3-yl)-N-{[2-(2-hydroxypropan-2-yl)pyridin-4-yl]methyl}acetamide]
> 50	O=C(Cc1ccc(-n2cccc2)cc1)N(CC1CCOCC1)C1C=CS(=O)(=O)C1 (stereo not shown) [I-485, N-(1,1-dioxo-2,3-dihydro-1lambda6-thiophen-3-yl)-N-[(oxan-4-yl)methyl]-2-[4-(1H-pyrrol-1-yl)phenyl]acetamide]
> 50	O=C(CCn1ccc2ccccc21)N(Cc1ccncc1)C1C=CS(=O)(=O)C1 (stereo not shown) [I-502, N-(1,1-dioxo-2,3-dihydro-1lambda6-thiophen-3-yl)-3-(1H-indol-1-yl)-N-[(pyridin-4-yl)methyl]propanamide]
